Molecules are shown by their SMILES.

One may read the melting point as the temperature, or range, at which the solid turns liquid. The molecule `Nc1ncnc2sc(Cc3ccccc3)c(-c3ccc(NS(=O)(=O)c4ccccc4)cc3)c12` came in with a melting point of 100 to 105 °C.
For `COC(=O)Cc1ccc(S(C)(=O)=O)c(S(C)(=O)=O)c1` the value was 157 to 158 °C; for `FC(F)(F)c1cccc(-c2ccnc3c(Cl)cnn23)c1`, 155 to 157 °C; for `Cc1cccc2c1N(N=C=O)C(=O)CN=C2`, 206 to 212 °C.
Turning to `CCOC(=O)c1cnc2ncnn2c1Cl`, the melting point was 130 to 132 °C.
Regarding `O=C1N[C@H](C(=O)O)CSCCCCCCCCC1CS` (stereo not given in full), the melting point lay within 165 to 168 °C.
`COc1ccc(CC(C)(N)C(=O)O)cc1OC` (stereo not given) showed a melting point of 244 to 246 °C.
`CCCOc1cc(CCCO)n(Cc2ccc(F)cc2F)n1` had a melting point of 66 to 67 °C.
For `CCCn1c(=O)c2[nH]c(/C=C/c3ccccc3)nc2n(CCC)c1=O` the value was 259 to 261 °C; for `CN(C(=O)c1ccc2nonc2c1)C1CC=C(F)CC1` (stereo not given), 117 to 118 °C; for `CCN(CCCN1CCN(c2ccccc2OC)CC1)C1CCc2ncsc2C1` (stereo not given), 64 °C.
Next, `CC(CC1COC(c2ccc(C(=O)Nc3ccc(C#N)cc3)cc2)OC1)C(O)(Cn1cncn1)c1ccc(F)cc1F` (stereo not given): 159 °C.
Next, `O=C(NS(=O)(=O)c1ncccc1C(F)(F)F)Oc1ccccc1`: 130 to 134 °C; `COC(=O)c1cc2cc([N+](=O)[O-])ccc2o1`: 168 °C; `CC(=O)OC1(C(=O)COC(=O)CC(C)C)CCC2C3CC(C)C4=CC(=O)C=CC4(C)C3C(O)CC21C` (stereo not given): 126 to 130 °C.
The molecule `c1ccc(COc2ccc(Nc3ccn(-c4ccccc4)n3)cc2)cc1` came in with a melting point of 145 to 146 °C.
As to `CN1CCN(c2ncnc3c(NC(=O)c4c(Cl)cccc4Cl)cccc23)C1=O`, the melting point is above 250 °C.
`CCCC12CCC(=O)C=C1c1c(cc(OC)c(Cl)c1Cl)C2Br` (stereo not given) returned a melting point of 132 to 134 °C.
Next, `Cc1oc(-c2ccccc2)nc1COc1ccc2cc(Cn3cc(CCC(=O)O)c(-c4ccccc4)c3)ccc2c1`: 122 to 123 °C; `COc1ccc(CN(C)CCN(C)Cc2ccc(NC(=O)c3cccc4c(=O)c5cccc(OC)c5[nH]c34)cc2)cc1OC`: 170 °C; `CCCCCCOc1ccc(C(=O)O)cc1Cl`: 140 °C.
`CC(=O)NC(C)c1ccc(CN2CCN(c3cccc(F)n3)CC2)cc1` (stereo not given) yielded a melting point of 109 to 111 °C.
Turning to `Nc1ncnc2c1ncn2CC(=O)Nc1ccc(-n2nc(C(F)(F)F)cc2C2CC2)cc1`, the melting point lay within 249 to 252 °C.
The molecule `CCCCc1oc2ccc([N+](=O)[O-])cc2c1S(=O)(=O)c1ccc(OCCCBr)cc1` displayed a melting point of 101 °C.
`COc1cc(OC)nc(O[C@@H]2CCCC[C@H]2C(=O)NS(=O)(=O)c2ccccc2)n1` (relative stereo): the melting point worked out at 175 °C.
For `CS(=O)(=O)c1ccc(-c2cc(C(=O)CCCO)nn2C2CCCCC2)cc1` the value was 112 to 114 °C.
Turning to `C=CCNC(=S)NC(=O)c1ccccc1`, the melting point is 68 to 69 °C.
For `CC(=O)Oc1cccc2oc(C(=O)Nc3ccc(CC4SC(=O)NC4=O)cc3)cc(=O)c12` (stereo not given) the value was 257 to 260 °C.
For `CCOC(=O)COc1ccc(NC(=O)c2sc(NC(=N)N)nc2C)cc1` the value was 223 °C; for `CCCc1nc2ccccc2c(=O)n1Cc1ccc(-c2ccccc2-c2nc(=O)o[nH]2)cc1`, 251 to 253 °C.
`Brc1ccc2[nH]c3cnc(-c4ccon4)cc3c2c1` returned a melting point of 292 to 293 °C.
For `COc1nc(N)nc(C2CC2)n1` the value was 158 to 159 °C; for `COc1ccc(CCNC(=O)N(C)O)cc1OC`, 103 to 104 °C; for `O=C(NCc1ccc(Cl)cc1)c1cnc2c(C(F)(F)F)cc(CCCO)cc2c1O`, 249 to 250 °C.
`Cc1nc2ccc(C(=O)O)nc2n1Cc1ccc(-c2ccccc2)cc1`: the melting point was above 250 °C.
